Read-outs that look alike come from different tables or passages of the source.
Assays:
[1] = test system: B-fibers of rabbit vagus nerve; assay: Extracellular recording of compound action potentials (APc), desheathed vagus nerve, B-fibers; parameters: species or system New Zealand white rabbit; details: for inhibition at 0.5 µM / activity at 0.5 µM: Oryctolagus cuniculus, 0.5 μM VTD; for inhibition at 0.5 µM: 70 min, 50 Hz, mean ± SEM; for activity at 0.5 µM: read-out: Amplitude of single APc elevation relative to amplitude at beginning of VTD exposure
Method: (§1) Adult male New Zealand white rabbits (3±0.5 kg) were pretreated intramuscularly with a mixture of ketamine (200 mg), xylazine (20 mg) and atropine (0.4 mg) for sedation. Ten minutes after this treatment, the animals were anesthetized with diethyl ether. After cessation of respiration, a longitudinal skin incision was made, and the cervical portion of both vagus nerves was dissected. The vagus nerves were temporarily stored at room temperature (22° C.) in a beaker containing modified HEPES Liley (HL) solution stirred constantly by aeration with a mixture of 95% oxygen and 5% carbon dioxide.
The modified HL solution used for bathing the nerve and subsequent drug perfusion consisted of (in mM): NaCl, 118.0; KCl, 5.0; CaCl2 2H2 0, 2.0; MgCl2 6H2 0, 1.0; α-D(+)-glucose, 11.0; NaHC03, 25.0; and N-2-hydroxy-ethylpiperazine-N-2-ethanesulfonic acid (HEPES) buffer, 5.0 mM. The pH was adjusted to 7.4±0.05 by addition of 1 N NaOH. The perfusion solution was bubbled with a gas mixture of 95% oxygen and 5% carbon dioxide at a vigorous rate just before flowing onto the nerve. The pH was stabilized by the HEPES buffer and maintained at 7.4.
VTD free base (no. V-5754, lot 58F-7828, Sigma, St. Louis, Mo.) was stored in a desiccator below 0° C. and was used to prepare a 2 mM stock solution in dimethyl sulfoxide [DMSO], Fisher Scientific, lot 861316), which also was stored at below 0° C. VTD, a steroidal alkaloid (FIG. 2A) that is produced by certain lilies, has a solubility limited to approximately 10^-3 M in aqueous slat solutions [Kupchan and By, "The Veratrum Group," in Alkaloids, Vol. 10, Manske, R.H.F. (ed.), New York, Academic Press (1968), pp. 193-285]. The stock VTD solution was diluted to final concentrations of 0.2-10 μM by the addition of HL. The maximum equivalent content of DMSO is 0.5%, and in three control experiments we detected no change in electrophysiologic behavior with 1% DMSO.
The nerves were cleaned and desheathed by microdissection before mounting in an airtight chamber (FIG. 2B) [Gissen et al., Anesthesiology 53:467-474 (1980)]. Petroleum jelly (White Petrolatum, Denison Laboratories) seals separated a central, 11-mm length of the nerve from the lateral pools, used for stimulating and recording with electrodes made of platinum wire. The central section of the chamber (volume 0.25 ml) was perfused with HL solution at 0.5 ml.min.^-1. The lateral pools containing the moistened ends of the nerves adsorbed to the electrodes were filled with paraffin oil. The APc s were propagated over 21 mm, from the stimulating to the recording electrodes, with the proximal recording electrodc located 4.5 mm from the edge of the central, drug exposure chamber. Thus, measured APc s were conducted in nerve exposed to drug for half of the conduction pathway, and had been conducting through drug-free medium over a distance containing at least two or three nodes of Ranvier (in the fastest-conducting fibers), before reaching the recording electrodes.
The signal from the nerve was amplified 50 times (model AK 475 operational amplifier, Metametrics, Carlisle, Mass.) and passed to the oscilloscope preamplifiers (model 5A 22N, Tektronix). The preparation was not considered acceptable unless the APc signals from the nerve exceeded 1.5 mV for A-fibers, 0.5 mV for B-fibers, and 0.3 mV for C-fibers.
Each nerve was exposed to only one VTD concentration, and each concentration was tested in four or five separate nerves, except in tie sheathed nerves, for which only two nerves were used. The temperature was 20°-22° C.
The standard protocol used for testing the action of VTD was to record the APc elevations in control HL solution for 30-60 min. before adding VTD; for 60-75 min. during VTD application; and for 60-75 min. after replacement with VTD-free HL. […]

[2] = test system: B-fibers of rabbit vagus nerve; assay: Sucrose-gap recording in the veratrinized region, B-fibers; parameters: species or system New Zealand white rabbit; details: 0.5 μm VTD
Method: as §1, with “dioxide. […]” for “dioxide.”
VTD free base (no. V-5754, lot 58F-7828, Sigma, St. Louis, Mo.) was stored in a desiccator below 0° C. and was used to prepare a 2 mM stock solution in dimethyl sulfoxide [DMSO], Fisher Scientific, lot 861316), which also was stored at below 0° C. […] The maximum equivalent content of DMSO is 0.5%, and in three control experiments we detected no change in electrophysiologic behavior with 1% DMSO.
Nerves were desheathed and mounted in an acrylic sucrose-gap chamber (FIG. 2C). […] In contrast to the extracellular chamber described above, which measured APc in a drug-free segment after they had propagated through a VTD solution, the sucrose gap measured the behavior of the nerve membrane directly exposed to drug, the "veratrinized" nerve. […]

[3] = test system: Na^+ channel of the mammalian brain; details: purified polypeptides in phospholipid vesicles; cited from earlier work
[4] = Toxic signs (salivation) in rats after sciatic nerve injection; type: in vivo, Male Sprague-Dawley rats; details: for fraction salivating: 0.1 ml
Method: Male Sprague-Dawley rats (200-250 g) were divided into 4 groups of 10 each. 0.1 ml of VTD alone at 0.2, 0.5 or 0.7 mM or vehicle (saline) was injected at the depression between the femoral head and the hip. The same animals were injected with VTD with epinephrine (EPI, 1:200,000) one week later, using the previously uninjected leg. Motor and sensory functions were rated by the respective monitoring of toe curling and/or foot dragging, and by testing the nocifensive withdrawal reflex to pinch of the foot pad of the injected hindlimb. Saline alone affected neither function.

rat sciatic nerve = assay: Motor block of rat sciatic nerve in vivo (toe curling and/or foot dragging); parameters: species or system Male Sprague-Dawley rats

COc1ccc(C(=O)OC2CCC3(C)C4CCC5C6(O)CC(O)C7(O)C(CN8CC(C)CCC8C7(C)O)C6(O)CC53OC24O)cc1OC (stereo not drawn) [VTD, veratridine]
Reversal of use-dependent effects on B-fibers by washing ([1]; 75 min. of washing with drug-free HL): not abolished completely
Single-stimulus APc after VTD compared with no-VTD controls ([1]; B-fibers, 0.5 μM, 60 min. in VTD, P>0.05): no significant difference
Reversal of use-dependent depression by washing ([1]; B-fibers, VTD-free HL wash): did not reverse
inhibition at 0.5 µM ([1]; B-fibers, after 70 min. in VTD, P < 0.001 vs control, read-out: Percent inhibition of the tenth APc in a train compared to the first, VTD): 55 ± 2.8%
inhibition at 0.5 µM ([1]; B-fibers, after 70 min. wash, read-out: Percent inhibition of the tenth APc in a train compared to the first, HL (Wash)): 52.6 ± 3.7%
activity at 0.5 µM ([1]; B-fibers, during VTD exposure): 105 ± 23%
activity at 0.5 µM ([1]; B-fibers, wash period): 108 ± 31%
B-fiber elevation after addition of VTD [2]: unchanged
Sodium flux into vesicles in response [3]: sodium flux into these vesicles occurs
Toxic signs, including profuse salivation ([4]; 0.5 and 0.7 mM VTD alone): 14/20
fraction salivating ([4]; [VTD] 0.2 mM): 0/10
fraction salivating ([4]; [VTD] 0.5 mM): 4/10
fraction salivating ([4]; [VTD] 0.7 mM): 10/10
Duration of motor block (summary) (rat sciatic nerve; VTD alone, 0.2-0.7 mM, approximately): 100 to 300 min
fraction block, MOTOR (rat sciatic nerve; [VTD] 0.2 mM, 0.1 ml): 8/10
onset, MOTOR (rat sciatic nerve; [VTD] 0.2 mM, 0.1 ml, mean ± SEM): 13 ± 2 min
fraction block, MOTOR (rat sciatic nerve; [VTD] 0.7 mM, 0.1 ml): 5/10
Duration of nerve block compared with bupivacaine and lidocaine (rat sciatic nerve; rat sciatic nerve): longer duration than both

From patent US5288723A, “A composition and a method of using veratridine and epinephrine as a local anesthetic” (priority 1991, dated 1994)
